Test results taken from PMC11844072, “Novel 5,6-dichlorobenzimidazole derivatives as dual BRAFWT and BRAFV600E inhibitors: design, synthesis, anti-cancer activity and molecular dynamics simulations” (BMC Chemistry, 2025).

Experiments:
Experiment in all cases: NCI 5-dose assay
Format in all cases: cell-based
MALME-3M = conditions: Homo sapiens, Melanoma
Procedure: (§1) The synthesized dichlorobenzimidazoles 10a–p were assayed for their influence on divers cancer cell lines according to the method presented in the Additional file A.
(§2) 5. Screening of cytotoxic activity against a panel of sixty human tumor cell lines
(§3) The selected compounds by NCI were evaluated for their anticancer activity in a two-stage process. First, these compounds were screened against the full NCI 60 cell lines panel at a single high dose of 10 µM. Then, the output from the single dose screen is reported as a mean graph. […]
(§4) at five different minimal concentrations.
(§5) Assay protocol. The human tumor cell lines of the cancer screening panel are grown in RPMI 1640 medium containing 5% fetal bovine serum and 2 mM L-glutamine. For a typical screening experiment, cells are inoculated into 96 well microtiter plates in 100 µL at plating densities ranging from 5000 to 40,000 cells/well depending on the doubling time of individual cell lines. After cell inoculation, the microtiter plates are incubated at 37 °C, 5% CO 2, 95% air and 100% relative humidity for 24 h prior to addition of the experimental drugs.
(§6) After 24 h, two plates of each cell line are fixed in situ with TCA, to represent a measurement of the cell population for each cell line at the time of drug addition (Tz). The experimental drugs are solubilized in dimethyl sulfoxide at 400-fold the desired final maximum test concentration and stored frozen prior to use. At the time of drug addition, an aliquot of frozen concentrate is thawed and diluted to twice the desired final maximum test concentration with complete medium containing 50 µg/mL gentamicin. Additional four, 10-fold or ½ log serial dilutions are made to provide a total of five drug concentrations plus control.
(§7) Aliquots of […] of these different drug dilutions are added to the appropriate microtiter wells already containing […] of medium, resulting in the required final drug concentrations.
(§8) Following drug addition, the plates are incubated for an additional 48 h at 37 °C, 5% CO 2, 95% air, and 100% relative humidity. For adherent cells, the assay is terminated by the addition of cold TCA.
(§9) Cells are fixed in situ by the gentle addition of 50 µL of cold 50% (w/v) TCA (final concentration, 10% TCA) and incubated for 60 min at 4 °C. The supernatant is discarded, and the plates are washed five times with tap water and air dried. Sulforhodamine B (SRB) solution ([…]) at 0.4% (w/v) in 1% acetic acid is added to each well, and plates are incubated for 10 min at room temperature. After staining, unbound dye is removed by washing five times with 1% acetic acid and the plates are air dried. Bound stain is subsequently solubilized with 10 mM trizma base, and the absorbance is read on an automated plate reader at a wavelength of 515 nm. For suspension cells, the methodology is […]
(§10) the same except that the assay is terminated by fixing settled cells at the bottom of the wells by gently adding 50 µl of 80% TCA (final concentration, 16% TCA). Using the seven absorbance measurements [time zero, (Tz), control growth, (C), and test growth in the presence of drug at the five concentration levels (Ti)], the percentage growth is calculated at each of the drug concentrations […]
(§11) Percentage growth inhibition is calculated as: [(Ti Tz)/(C–Tz)] x 100 for concentrations for which Ti>/=Tz and [(Ti-Tz)/Tz] x 100 for concentrations for which Ti < Tz.
(§12) Three dose response parameters are calculated for each experimental agent. Growth […]
(§13) concentration resulting in a 50% reduction in the net protein increase (as measured by SRB staining) in control cells during the drug incubation. The drug concentration resulting in total growth inhibition (TGI) is calculated from Ti = Tz. […]
(§14) reduction in the measured protein at the end of the drug treatment as compared to that at the beginning) indicating a net loss of cells following treatment is calculated from [(Ti–Tz)/Tz] x 100 =
(§15) _50. Values are calculated for each of these three parameters if the level of activity is reached; […]

SF-295 = conditions: Homo sapiens; SF-295, CNS cancer
Procedure: as §1, §2, §3, §4, §5, §6, §7, §8, §9, §10, §11, §12, §13, §14, §15

MDA-MB-435 = conditions: Homo sapiens; MDA-MB-435, Melanoma
Procedure: as §1, §2, §3, §4, §5, §6, §7, §8, §9, §10, §11, §12, §13, §14, §15

RPMI-8226 = conditions: Homo sapiens; RPMI-8226, Leukemia
Procedure: as §1, §2, §3, §4, §5, §6, §7, §8, §9, §10, §11, §12, §13, §14, §15

K-562 = conditions: Homo sapiens, K562; K-562, Leukemia
Procedure: as §1, §2, §3, §4, §5, §6, §7, §8, §9, §10, §11, §12, §13, §14, §15

KM12 = conditions: Homo sapiens; KM12, Colon cancer
Procedure: as §1, §2, §3, §4, §5, §6, §7, §8, §9, §10, §11, §12, §13, §14, §15

PC-3 = conditions: Homo sapiens; PC-3, Prostate cancer
Procedure: as §1, §2, §3, §4, §5, §6, §7, §8, §9, §10, §11, §12, §13, §14, §15

MDA-MB-231/ATCC = conditions: Homo sapiens, Breast cancer
Procedure: as §1, §2, §3, §4, §5, §6, §7, §8, §9, §10, §11, §12, §13, §14, §15

CCRF-CEM = conditions: Homo sapiens, Leukemia
Procedure: as §1, §2, §3, §4, §5, §6, §7, §8, §9, §10, §11, §12, §13, §14, §15

HOP-92 = conditions: Homo sapiens; HOP-92, Non-small cell lung cancer
Procedure: as §1, §2, §3, §4, §5, §6, §7, §8, §9, §10, §11, §12, §13, §14, §15

SF-539 = conditions: Homo sapiens; SF-539, CNS cancer
Procedure: as §1, §2, §3, §4, §5, §6, §7, §8, §9, §10, §11, §12, §13, §14, §15

CAKI-1 = conditions: Homo sapiens; CAKI-1, Renal cancer
Procedure: as §1, §2, §3, §4, §5, §6, §7, §8, §9, §10, §11, §12, §13, §14, §15

OVCAR-8 = conditions: Homo sapiens; OVCAR-8, Ovarian cancer
Procedure: as §1, §2, §3, §4, §5, §6, §7, §8, §9, §10, §11, §12, §13, §14, §15

COLO 205 = conditions: Homo sapiens; COLO 205, Colon cancer
Procedure: as §1, §2, §3, §4, §5, §6, §7, §8, §9, §10, §11, §12, §13, §14, §15

A549/ATCC = conditions: Homo sapiens, Non-small cell lung cancer
Procedure: as §1, §2, §3, §4, §5, §6, §7, §8, §9, §10, §11, §12, §13, §14, §15

NCI/ADR-RES = conditions: Homo sapiens, Ovarian cancer
Procedure: as §1, §2, §3, §4, §5, §6, §7, §8, §9, §10, §11, §12, §13, §14, §15

IGROV1 = conditions: Homo sapiens, IGROV-1; IGROV1, Ovarian cancer
Procedure: as §1, §2, §3, §4, §5, §6, §7, §8, §9, §10, §11, §12, §13, §14, §15

M14 = conditions: Homo sapiens; M14, Melanoma
Procedure: as §1, §2, §3, §4, §5, §6, §7, §8, §9, §10, §11, §12, §13, §14, §15

SK-OV-3 = conditions: Homo sapiens; SK-OV-3, Ovarian cancer
Procedure: as §1, §2, §3, §4, §5, §6, §7, §8, §9, §10, §11, §12, §13, §14, §15

SK-MEL-5 = conditions: Homo sapiens; SK-MEL-5, Melanoma
Procedure: as §1, §2, §3, §4, §5, §6, §7, §8, §9, §10, §11, §12, §13, §14, §15

HCT-15 = conditions: Homo sapiens; HCT-15, Colon cancer
Procedure: as §1, §2, §3, §4, §5, §6, §7, §8, §9, §10, §11, §12, §13, §14, §15

UACC-62 = conditions: Homo sapiens; UACC-62, Melanoma
Procedure: as §1, §2, §3, §4, §5, §6, §7, §8, §9, §10, §11, §12, §13, §14, §15

NCI-H460 = conditions: Homo sapiens; NCI-H460, Non-small cell lung cancer
Procedure: as §1, §2, §3, §4, §5, §6, §7, §8, §9, §10, §11, §12, §13, §14, §15

Structure (SMILES)	GI50 (MALME-3M) [µM]	GI50 (SF-295) [µM]	GI50 (MDA-MB-435) [µM]	GI50 (RPMI-8226) [µM]	GI50 (K-562) [µM]	GI50 (KM12) [µM]	GI50 (PC-3) [µM]	GI50 (MDA-MB-231/ATCC) [µM]	GI50 (CCRF-CEM) [µM]	GI50 (HOP-92) [µM]	GI50 (SF-539) [µM]	GI50 (CAKI-1) [µM]	GI50 (OVCAR-8) [µM]	GI50 (COLO 205) [µM]	GI50 (A549/ATCC) [µM]	GI50 (NCI/ADR-RES) [µM]	GI50 (IGROV1) [µM]	GI50 (M14) [µM]	GI50 (SK-OV-3) [µM]	GI50 (SK-MEL-5) [µM]	also measured
COC(=O)COc1ccc(C=NNC(=O)Cn2c(-c3ccc(OC)cc3)nc3cc(Cl)c(Cl)cc32)cc1 [Compound 10h, Methyl-2-(4-((2-(2-(5,6-dichloro-2-(4-methoxyphenyl)-1H-benzo[d]imidazol-1-yl)acetyl)hydrazono)methyl)phenoxy)acetate]	9.18	> 82.5	14.8	71.2	11.3	> 82.5	4.45	6.66	4.78	11.4	10.7	5.74	2.93	16.5	> 82.5	5.22	4.06	17.5	19.1	80.9	GI50 (HCT-15): 11.2 µM; GI50 (UACC-62): 10.1 µM; GI50 (NCI-H460): > 82.5 µM
COC(=O)COc1ccc(C=NNC(=O)Cn2c(-c3ccc(OC)cc3)nc3cc(Cl)c(Cl)cc32)cc1OC [Compound 10p, Methyl-2-(4-((2-(2-(5,6-dichloro-2-(4-methoxyphenyl)-1H-benzo[d]imidazol-1-yl)acetyl)hydrazono)methyl)-2-methoxyphenoxy)acetate]	> 72.5	> 72.5	22.9	> 72.5	> 72.5	> 72.5	4.38	13.8	> 72.5	12.5	7.52	2.77	2.54	18.2	> 72.5	3.05	3.6	> 72.5	16	> 72.5	GI50 (HCT-15): > 72.5 µM; GI50 (UACC-62): 6.52 µM; GI50 (NCI-H460): 26.1 µM
COC(=O)COc1cc(C=NNC(=O)Cn2c(-c3ccc(OC)cc3)nc3cc(Cl)c(Cl)cc32)ccc1OC [Compound 10o, Methyl-2-(5-((2-(2-(5,6-dichloro-2-(4-methoxyphenyl)-1H-benzo[d]imidazol-1-yl)acetyl)hydrazono)methyl)-2-methoxyphenoxy)acetate]	> 100	> 100	> 100	> 100	> 100	> 100	17.2	16.1	> 100	23.6	5.28	15.3	8.68	> 100	> 100	81.2	14.7	> 100	26	> 100	GI50 (HCT-15): > 100 µM; GI50 (UACC-62): 14.5 µM; GI50 (NCI-H460): > 100 µM
